Measured values taken from US8546438B2, “Substituted (thiophenyl-carbonyl)imidazolidinones, and use thereof” (priority 2008, dated 2013).

Key:
HIV-1NL4-3 K103N-Y181C = assay: Light assay with inhibitor-resistant HI reporter virus in MT4 7F2 cells; assay type: cell-based; settings: Human immunodeficiency virus 1, read-out: EC50(nM) MT4 7F2 cells HIV-1NL4-3 K103N-Y181C 2% FCS
Experimental: (§1) For the mixture for a 96-well MTP, 3 million MT4 7F2 cells are pelleted, suspended in 1 ml of RPMI 1640 medium without phenol red (Invitrogen, Karlsruhe, Germany)/10% FCS/10% AIM-V (Invitrogen, Karlsruhe, Germany) and incubated together with a suitable amount of the corresponding HIV-1NL4-3 reporter virus at 37° C. for 2 hours (pellet infection). Unadsorbed viruses are subsequently washed out with PBS, and the infected cells are pelleted again and suspended in 8 ml of RPMI 1640 medium without phenol red/2% or 10% FCS/10% AIM-V. 80 μl thereof are pipetted into each well of a white 96-well MTP with 20 μl of test substance in suitable dilution. To avoid edge effects, the wells on the edge of the MTP are not used for substance dilutions. The second vertical row of the MTP contains only infected cells (virus control) and the eleventh vertical row only uninfected cells (cell control), in each case in RPMI 1640 medium without phenol red/2% or 10% FCS/10% AIM-V. The other wells of the MTP contain the compounds of the invention in various concentrations starting from the third vertical row, from which the test substances are diluted in 3-fold steps up to the tenth vertical row 3^7-fold. The test substances are dissolved in DMSO, whereby the final DMSO concentration in the test mixture is 1%. The test mixtures are incubated at 37° C./5% CO2 for five days and, after the addition of 15 μl of Lu164 substrate (5 mg/ml coelenterazine dissolved in 30 μM glutathione/DMSO, 100 mM NaCl, 1M MES, 100 mM glutathione), evaluated by luminometry. The resulting values are in the region of 1 000 000 RLUs (relative light units) for the virus control and 300 to 400 RLUs for the cell control. The EC50 values of the test substances are determined as the concentration at which the virus replication measured in RLUs is 50% of the untreated infected cells.

HIV-1NL4-3 wt = assay: Light assay with wild-type HI reporter virus in MT4 7F2 cells; assay type: cell-based; settings: Human immunodeficiency virus 1, read-out: EC50(nM) MT4 7F2 cells HIV-1NL4-3 wt 2% FCS
Experimental: as §1

HIV-1LAI = assay: H9 assay with wild-type HIV-1LAI (AlamarBlue, supernatant infection); assay type: cell-based; settings: Human immunodeficiency virus 1, H9 cells, 10% FCS
Experimental: For the mixture for a 96-well MTP, 3 million PBLs are pelleted, suspended in 1 ml of RPMI 1640 medium/10% FCS and incubated together with a suitable amount of HIV-1LAI (NIH AIDS Research & Reference Reagent Program, Germantown, USA) at 37° C. for 2 hours (pellet infection). Unadsorbed viruses are subsequently washed out with PBS, and the infected cells are pelleted again and suspended in 18 ml of RPMI 1640 medium/10% FCS/interleukin-2 (40 U/ml). 180 μl thereof are pipetted into each well of a white 96-well MTP with 20 μl of test substance in suitable dilution. Alternatively, after preparation of the substance dilutions in the MTP, the HIV is pipetted in together with the cells and is not washed out again (supernatant infection). In order to avoid edge effects, the wells at the edge of the MTP are not used for substance dilutions. The second vertical row of the MTP contains only infected cells (virus control) and the eleventh vertical row only uninfected cells (cell control), in each case in RPMI 1640 medium/10% FCS/interleukin-2 (40 U/ml). The other wells of the MTP contain the compounds of the invention in various concentrations starting from the third vertical row, from which the test substances are diluted in 3-fold steps up to the tenth vertical row 3^7-fold. The test substances are dissolved in DMSO, whereby the final DMSO concentration in the test mixture is 1%. The test mixtures are incubated at 37° C./5% CO2. After 5 and 7 days, 50 μl of cell-free supernatant are removed from each well to determine the amount of p24 present by means of a p24 ELISA (HIV-1 p24^CA Antigen Capture Assay Kit, NCI-Frederick Cancer Research and Development Center, Frederick, USA). From the resulting values of the photometric evaluation (450/620 nm) the EC50 values of the test substances are determined as the concentration at which the amount of p24 is 50% of the untreated infected cells.
Alternatively, H9 cells (ATCC, Wesel, Germany) are employed instead of PBLs for testing the test substances. H9 cells are incubated in RPMI 1640 medium with 2% or 10% FCS as a HIV-1LAI supernatant infection at 37° C./5% CO2, (20 μl of substance dilution and 80 μl of cells/virus per well) in accordance with the pattern described above for 5 days. Subsequently, 10 μl of AlamarBlue (Invitrogen, Karlsruhe, Germany) are added to each well, and the MTPs are incubated at 37° C. for 3 hours before the fluorimetric evaluation takes place (544/590 nm). The resulting values are about 40 000 for the untreated uninfected cells and about 7000 for the untreated infected cells. In the low concentration range, the EC50 values of the test substances are determined as the concentration at which the fluorescence is 50% of the untreated uninfected cells (in each case subtracting the values of the untreated infected cells). In addition, in the high concentration range, the CC50 values of the test substances are determined as the concentration at which the fluorescence is 50% of the untreated uninfected cells (in each case subtracting the values of the untreated infected cells).

reverse transcriptase = target: T1, reverse transcriptase (Human immunodeficiency virus type 1 group M subtype B, UniProt P04585); assay: Biochemical reverse transcriptase assay (Reverse Transcriptase Assay, colorimetric, Roche); settings: read-out: IC50(nM) RT assay
T1 construct: negative control (mixture without reverse transcriptase); purchased Roche Diagnostics GmbH, Mannheim, Germany
Experimental: The “Reverse Transcriptase Assay, colorimetric” (Roche Diagnostics GmbH, Mannheim, Germany) is used in accordance with the manufacturer's information. The test substances are dissolved in DMSO and are used in the test diluted in 5-fold steps (final DMSO concentration 1%). The resulting values of the photometric evaluation (405/492 nm) are less than 0.1 for the negative control (mixture without reverse transcriptase) and are in the region of 1.5 for the positive control (mixture without test substance). The IC50 values of the test substances are determined as the concentration of the test substance dilution at which the measured optical density is 50% of the positive control.

N#Cc1cccc(-c2cc(C(=O)N3CNC(=O)C3)sc2-c2cc(F)cc(Cl)c2)c1 [Example 1, 3-{2-(3-Chloro-5-fluorophenyl)-5-[(4-oxoimidazolidin-1-yl)carbonyl]thiophen-3-yl}benzenecarbonitrile]
EC50 (HIV-1NL4-3 K103N-Y181C): 45 nM | EC50 (HIV-1NL4-3 wt): 1 nM | EC50 (HIV-1LAI): 9 nM

O=C1CN(C(=O)c2cc(-c3ccc(F)c(Cl)c3)c(-c3cc(F)cc(Cl)c3)s2)CN1 [Example 2, 1-{[4-(3-Chloro-4-fluorophenyl)-5-(3-chloro-5-fluorophenyl)thiophen-2-yl]carbonyl}imidazolidin-4-one]
EC50 (HIV-1NL4-3 K103N-Y181C): 176 nM | EC50 (HIV-1NL4-3 wt): 20 nM | IC50 (reverse transcriptase): 920 nM | EC50 (HIV-1LAI): 68 nM

N#Cc1cccc(-c2cc(C(=O)N3CNC(=O)C3)sc2-c2cccc(Cl)c2)c1 [Example 3, 3-{2-(3-Chlorophenyl)-5-[(4-oxoimidazolidin-1-yl)carbonyl]thiophen-3-yl}benzenecarbonitrile]
EC50 (HIV-1NL4-3 K103N-Y181C): 100 nM | EC50 (HIV-1NL4-3 wt): 5 nM | IC50 (reverse transcriptase): 740 nM | EC50 (HIV-1LAI): 71 nM

N#Cc1cc(-c2cc(C(=O)N3CNC(=O)C3)sc2-c2cc(F)cc(Cl)c2)ccc1F [Example 4, 5-{2-(3-Chloro-5-fluorophenyl)-5-[(4-oxoimidazolidin-1-yl)carbonyl]thiophen-3-yl}-2-fluorobenzenecarbonitrile]
EC50 (HIV-1NL4-3 K103N-Y181C): 44 nM | EC50 (HIV-1NL4-3 wt): < 1.5 nM | EC50 (HIV-1LAI): 12 nM

O=C1CN(C(=O)c2cc(-c3cccc(Cl)c3)c(-c3cc(F)cc(Cl)c3)s2)CN1 [Example 5, 1-{[5-(3-Chloro-5-fluorophenyl)-4-(3-chlorophenyl)thiophen-2-yl]carbonyl}imidazolidin-4-one]
EC50 (HIV-1NL4-3 K103N-Y181C): 258 nM | EC50 (HIV-1NL4-3 wt): 21 nM | IC50 (reverse transcriptase): 2170 nM | EC50 (HIV-1LAI): 85 nM

N#Cc1cc(-c2sc(C(=O)N3CNC(=O)C3)cc2-c2cccc(Cl)c2)ccc1F [Example 6, 5-{3-(3-Chlorophenyl)-5-[(4-oxoimidazolidin-1-yl)carbonyl]thiophen-2-yl}-2-fluorobenzenecarbonitrile]
EC50 (HIV-1NL4-3 K103N-Y181C): 348 nM | EC50 (HIV-1NL4-3 wt): 165 nM | EC50 (HIV-1LAI): 900 nM

O=C1CN(C(=O)c2cc(-c3cccc(Cl)c3)c(-c3cccc(OC(F)(F)F)c3)s2)CN1 [Example 7, 1-({4-(3-Chlorophenyl)-5-[3-(trifluoromethoxy)phenyl]thiophen-2-yl}carbonyl)imidazolidin-4-one]
EC50 (HIV-1NL4-3 K103N-Y181C): 150 nM | EC50 (HIV-1NL4-3 wt): 100 nM | EC50 (HIV-1LAI): 1410 nM

N#Cc1cc(-c2cc(C(=O)N3CNC(=O)C3)sc2-c2cccc(Cl)c2)ccc1F [Example 8, 5-{2-(3-Chlorophenyl)-5-[(4-oxoimidazolidin-1-yl)carbonyl]thiophen-3-yl}-2-fluorobenzenecarbonitrile]
EC50 (HIV-1NL4-3 K103N-Y181C): 121 nM | EC50 (HIV-1NL4-3 wt): 5 nM | EC50 (HIV-1LAI): 103 nM

O=C1CN(C(=O)c2cc(-c3ccc(F)c(Cl)c3)c(-c3cccc(Cl)c3)s2)CN1 [Example 9, 1-{[4-(3-Chloro-4-fluorophenyl)-5-(3-chlorophenyl)thiophen-2-yl]carbonyl}imidazolidin-4-one]
EC50 (HIV-1NL4-3 K103N-Y181C): 260 nM | EC50 (HIV-1NL4-3 wt): 35 nM | EC50 (HIV-1LAI): 593 nM

N#Cc1cc(F)cc(-c2sc(C(=O)N3CNC(=O)C3)cc2-c2ccc(F)c(Cl)c2)c1 [Example 10, 3-{3-(3-Chloro-4-fluorophenyl)-5-[(4-oxoimidazolidin-1-yl)carbonyl]thiophen-2-yl}-5-fluorobenzenecarbonitrile]
EC50 (HIV-1NL4-3 K103N-Y181C): 40 nM | EC50 (HIV-1NL4-3 wt): 5 nM | EC50 (HIV-1LAI): 34 nM

N#Cc1cc(F)cc(-c2sc(C(=O)N3CNC(=O)C3)cc2-c2cccc(Cl)c2)c1 [Example 11, 3-{3-(3-Chlorophenyl)-5-[(4-oxoimidazolidin-1-yl)carbonyl]thiophen-2-yl}-5-fluorobenzenecarbonitrile]
EC50 (HIV-1NL4-3 K103N-Y181C): 123 nM | EC50 (HIV-1NL4-3 wt): 2 nM | EC50 (HIV-1LAI): 22 nM
